In brackets after ≈: the same amount, converted by molar mass.
Key:
Type in all cases: functional
P388 [1] = assay: In vivo antitumor activity against mouse P388 cells at 46 to 185 ug/kg relative to control
P388 [2] = assay: Cytotoxicity against mouse P388 cells
P388 [3] = assay: In vivo antitumor activity against mouse P388 cells assessed as cell life extension at 80 ug/kg

CCCC(=O)O[C@H]1C[C@H]2C[C@@H](O)CC(=O)O[C@@H]([C@@H](C)O)C[C@@H]3C/C(=C\C(=O)OC)[C@H](OC(C)=O)[C@@](O)(O3)C(C)(C)/C=C/[C@H]3C/C(=C\C(=O)OC)C[C@@H](C[C@](O)(O2)C1(C)C)O3 [BRYOSTATIN 6]
T/C (P388 [1]): 139%
ED50 (P388 [2]): 1 ×10⁻⁵ ug/ml

CCCC(=O)O[C@H]1/C(=C/C(=O)OC)C[C@H]2C[C@H]([C@@H](C)O)OC(=O)C[C@H](O)C[C@@H]3C[C@H](OC(C)=O)C(C)(C)[C@](O)(C[C@@H]4C/C(=C/C(=O)OC)C[C@H](/C=C/C(C)(C)[C@]1(O)O2)O4)O3 [BRYOSTATIN 9]
EC50 (P388 [2]; Mus musculus, P388, read-out: ED50 (the source's name)): 1.2 ng/mL (≈ 1.41 nM)
Activity (P388 [3]): 40%

From ChEMBL document CHEMBL1149014, “Antineoplastic agents, 118. Isolation and structure of bryostatin 9” (1986)
